The numbers were not newly measured in patent US20250311762A1, “FORMULATION AND METHOD FOR AN EXERCISE SUPPORTING NUTRITIONAL SUPPLEMENT” (BullFit, LLC., priority 2024, published 2025), which cites them from elsewhere.

Series [1] concerns anaerobic strength performance. The conditions noted are these: athletes supplementing with Betaine.
Series [2] has as its system cognitive function. To be noted: 2 g per day for 5 days during a demanding military combat training course.

The structures appear in SMILES notation.

On to `C[N+](C)(C)CC(=O)[O-]` [Betaine, trimethylglycine], for which the “squat, bench press, and other activities” value in series [1] was “increased their squat, bench press, and other activities”.
Take `N[C@@H](Cc1ccc(O)cc1)C(=O)O` [L-tyrosine, L-Tyrosine]: the “cognitive function relative to placebo” value in series [2] was “improved various aspects of cognitive function relative to placebo”.
